The values that follow come from US9346761B2, “Arginine methyltransferase inhibitors and uses thereof” (Epizyme, Inc., priority 2013, dated 2016).

One assay concerns the target T1, Full-length human PRMT3 (Homo sapiens, UniProt O60678).
T1 construct: GST-tagged PRMT3; made in house; host or cells: E. coli BL21(DE3) Gold (pGEX-KG)
The assay is described as follows: PRMT3 biochemical assay (3H-SAM Flashplate, peptide substrate). From the text: General Materials. S-adenosylmethionine (SAM), S-adenosylhomocysteine (SAH), bicine, Tween20, dimethylsulfoxide (DMSO), bovine skin gelatin (BSG),), isopropyl-β-D-thiogalactopyranoside (IPTG), and Tris(2-carboxyethyl)phosphine hydrochloride solution (TCEP) were purchased from Sigma-Aldrich at the highest level of purity possible. ^3H-SAM was purchase from American Radiolabeled Chemicals with a specific activity of 80 Ci/mmol. 384-well streptavidin Flashplates were purchased from PerkinElmer.
Substrates. Peptide containing the classic RMT substrate motif was synthesized with an N-terminal linker-affinity tag motif and a C-terminal amide cap by 21st Century Biochemicals. The peptide was purified by high-performance liquid chromatography (HPLC) to greater than 95% purity and confirmed by liquid chromatography mass spectrometry (LC-MS). The sequence was Biot-Ahx-[…]-amide (SEQ ID NO.:11).
Molecular Biology: : Full-length human PRMT3 (NM_005788.3) isoform 1 transcript clone was amplified from an HEK 293 cDNA library and subcloned into pGEX-KG (GE Life Sciences). The resulting construct encodes an N-terminal GST tag and a thrombin cleavage sequence ([…] […] […] […]) (SEQ ID NO.:12) fused directly to Cys 2 of PRMT3.
Protein Expression. E. coli (BL21(DE3) Gold, Stratagene) made competent by the CaCl2 method were transformed with the PRMT3 construct and ampicillin selection. Protein over-expression was accomplished by growing the PRMT3 expressing E. coli clone and inducing expression with 0.3 mM IPTG at 16° C. The culture was grown for 12 hours, harvested by centrifugation, and stored at −80° C. for purification.
Protein Purification. […] GST-tagged PRMT3 eluted with 25-400 mM phosphate in buffer C. Protein was concentrated and buffer was exchanged to 20 mM Tris, 150 mM NaCl, 5% glycerol, 5 mM β-mercaptoethanol, pH7.8 by ultrafiltration. The purity of recovered protein was 70%.
General Procedure for PRMT3 Enzyme Assays on Peptide Substrates. The assays were all performed in a buffer consisting of 20 mM Bicine (pH=7.6), 1 mM TCEP, 0.005% BSG, and 0.002% Tween 20, prepared on the day of use. Compounds in 100% DMSO (1 ul) were spotted into a polypropylene 384-well V-bottom plates (Greiner) using a Platemate Plus outfitted with a 384-channel head (Thermo Scientific). DMSO (1 ul) was added to Columns 11, 12, 23, 24, rows A-H for the maximum signal control and 1 ul of SAH, a known product and inhibitor of PRMT3, was added to columns 11, 12, 23, 24, rows I-P for the minimum signal control. A cocktail (40 ul) containing the PRMT3 enzyme was added by Multidrop Combi (Thermo-Fisher). The compounds were allowed to incubate with PRMT3 for 30 min at room temperature, then a cocktail (10 ul) containing SAM and peptide was added to initiate the reaction (final volume=51 ul). The final concentrations of the components were as follows: PRMT3 was 0.5 nM, ^3H-SAM was 100 nM, non-radiolabeled SAM was 1.8 uM, peptide was 330 nM, SAH in the minimum signal control wells was 1 mM, and the DMSO concentration was 2%. The assays were stopped by the addition of potassium chloride (10 ul) to a final concentration of 100 mM. 50 ul of the reaction in the 384-well polypropylene plate was then transferred to a 384-well Flashplate and the biotinylated peptides were allowed to bind to the streptavidin surface for at least 1 hour before being washed once with 0.1% Tween20 in a Biotek ELx405 plate washer. The plates were then read in a PerkinElmer TopCount plate reader to measure the quantity of ^3H-labeled peptide bound to the Flashplate surface, measured as disintegrations per minute (dpm) or alternatively, referred to as counts per minute (cpm).
Where dpm=disintegrations per minute, cmpd=signal in assay well, and min and max are the respective minimum and maximum signal controls.
Where top and bottom are the normally allowed to float, but may be fixed at 100 or 0 respectively in a 3-parameter fit. […]

Assay [1] concerns mono-methyl arginine in RKO cells. Put plainly: RKO methylation assay, In Cell Western for mono-methyl arginine and DNA content. It counts as cell-based. The following applies: Homo sapiens; In Cell Western, RKO cells, 72 hours, percent activation of mono-methyl arginine signal; read-out: EC30.

T1 sequence (O60678 with tags, fused parts or gaps): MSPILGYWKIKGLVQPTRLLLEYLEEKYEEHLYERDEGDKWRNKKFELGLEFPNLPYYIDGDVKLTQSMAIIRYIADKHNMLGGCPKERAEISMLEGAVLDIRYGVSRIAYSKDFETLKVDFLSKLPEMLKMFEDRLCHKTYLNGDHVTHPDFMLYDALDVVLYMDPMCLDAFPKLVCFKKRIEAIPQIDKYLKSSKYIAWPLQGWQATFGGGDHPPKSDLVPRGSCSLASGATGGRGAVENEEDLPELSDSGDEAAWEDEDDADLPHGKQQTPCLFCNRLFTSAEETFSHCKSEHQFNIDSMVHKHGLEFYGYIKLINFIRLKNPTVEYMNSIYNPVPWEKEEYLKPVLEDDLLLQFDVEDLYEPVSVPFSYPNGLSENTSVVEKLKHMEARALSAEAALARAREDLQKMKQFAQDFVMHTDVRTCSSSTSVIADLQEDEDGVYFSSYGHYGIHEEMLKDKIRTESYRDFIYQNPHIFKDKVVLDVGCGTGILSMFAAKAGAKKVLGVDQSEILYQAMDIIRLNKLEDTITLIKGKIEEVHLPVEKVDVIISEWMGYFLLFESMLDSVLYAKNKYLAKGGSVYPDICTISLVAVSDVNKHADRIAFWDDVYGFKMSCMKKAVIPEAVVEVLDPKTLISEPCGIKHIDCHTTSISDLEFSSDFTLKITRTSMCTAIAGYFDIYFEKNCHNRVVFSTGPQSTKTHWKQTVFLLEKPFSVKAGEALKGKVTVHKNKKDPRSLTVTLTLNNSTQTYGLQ

The term IC50 denotes the concentration needed to halve the response being measured. By EC30 is commonly meant the concentration at which the effect reaches the 30% level. Compound `CC(C)Cc1ccc(-c2n[nH]cc2CN(C)CCN)cc1` [Compound 165] came in with a half-maximal inhibitory concentration (IC50) against Full-length human PRMT3 of 1010 to 3000 nM. In addition, the 30% effect concentration (EC30) in assay [1] was less than 3000 nM.
